What was measured:
[1] = test system: tumors expressing IDO; conditions: mice with IDO-transfected tumors; cited from earlier work
[2] = test system: IDO mRNA; assay: IDO mRNA expression by quantitative RT-PCR in monocyte-derived DCs; format: cell-based, human; conditions: for effect on IDO mRNA levels induced by PGE2 or forskolin plus TNFα: inhibitor present during 48 hrs culture
Experimental: Isolation and preparation of cells. Peripheral blood mononuclear cells (PBMCs), DCs and T cells were prepared as described. Briefly, buffy coats were obtained from normal donors (EFS, Rungis) and PBMCs were isolated by sedimentation over Ficoll-Hypaque (Pharmacia Biotech, Piscataway, N.J.). CD 14-enriched and CD-14-depleted fractions were prepared by the use of CD14 Miltenyi microbeads followed by magnetic cell sorting according to the manufacturers' instruction (Miltenyi Biotech, Auburn, Calif.). Immature DCs were prepared by the use of CD14+ fraction by culturing cells in the presence of GM-CSF (Berlix, Seattle, Wash.) and IL-4 (R&D Systems, Minneapolis, Minn.) for 7 days. GM-CSF (1000 U/ml) and IL-4 (500 U/ml) were added to the cultures on days 0, 2, and 4. To generate mature DCs, the cultures were transferred to fresh wells on days 6-7 and the indicated maturation stimulus was added for an additional 1-2 days. At days 6-7, >95% of the cells were CD13^−CD83^−HLA-r^lo DCs. After maturation, on days 8-9, 70-95% of the cells were of the mature […] phenotype. CD4+ and CD8+ T cells were purified from the CD14− fraction to >99% purity by positive selection with the MACS column purification system.
Quantitative analysis of IDO mRNA expression. IDO mRNA detection by real-time PCR. Briefly, RNA was extracted by Tri-reagent (Sigma) and cDNA was synthesized from 1-2 μg RNA using oligo dT (Roche) and Superscript reverse transcriptase (Invitrogen) according to manufacturers' instructions. IDO specific mRNA is quantified relative to GAPDH or TBP (TATA box Binding Protein) using the following primers: IDO forward: 5′[…]-3′ (SEQ ID NO:1), IDO reverse: 5′-[…]-3′ (SEQ ID NO:2), GAPDH forward: 5′[…]-3′ (SEQ ID NO:3), GAPDH reverse: 5′-[…]-3′ (SEQ ID NO:4) TBP forward: 5′-[…]-3′ (SEQ ID NO: 5); TBP reverse: 5′-[…]-3′ (SEQ ID NO: 6),Primers for EP receptors are described in Kamphuis et al. Invest Ophthalmol Vis Sci. 42, 3209-3215 (2001). Quantitative RT-PCR was performed using the SYBR® Green JumpStart™ Taq ReadyMix™ (Sigma) according to manufacturer's instructions. The reactions were run on a PTC200 equipped with a Chromo4™ detector (MJ Research, Mass., USA). […] The ratio gene of interest/housekeeping genes was calculated according to the formula: ratio=2^−dCt (dCT=mean Ct gene−mean Ct housekeeping). […]
Based on IDO's proposed role in immune tolerance, the present inventors evaluated the effect of different DC maturation stimuli on IDO expression. […] The present inventors first established assays to monitor IDO mRNA expression using realtime quantitative RT-PCR (qPCR), and Western blot. RNA was extracted from immature DCs (iDC) exposed to distinct maturation stimuli and IDO expression was quantified as described in the Materials and Methods.

[3] = test system: IDO; assay: IDO enzymatic activity, kynurenine by colorimetric assay (Ehrlich's reagent), in monocyte-derived DCs; format: cell-based, human
Experimental: Determination of IDO enzymatic activity and Kynurenine assays. Tryptophan is catabolized by IDO to N-formylkynrenine, which is rapidly converted to kynurenine. Measurement of kynurenine levels is a surrogate marker for IDO activity.
Except where stated, cells were incubated for an additional 4 hours, followed by harvest of supernatant and quantitation of kynurenine by HPLC or using a colormetric assay.
Alternatively, kynurenine concentrations in the culture supernatants were measured using a colormetric assay (i.e., spectrophotometrically). 50 μl of 30% trichloroacetic acid was added to 100 μl of the culture supernatant, vortexed, and then centrifuged at 10,000 rpm for 5 minutes. A 75 μl volume of the supernatant was added to 75 μl of Ehrlich's reagent (100 mg of […], 5 ml of glacial acetic acid) in a microtiter plate well (96-well format). Optical density was measured at 480 nm filter with a Multiskan MS (Labsystems) microplate reader. The values were referred to a standard curve of defined kynurenine concentrations ([…]).
To validate this approach, the present inventors established a standard curve for quantifying kynurenine and compared the experimental values obtained using the calorimetric assay with those from the HPLC analysis.

[4] = test system: EP2; assay: EP2 mRNA expression in DCs by quantitative RT-PCR; format: cell-based, human; conditions: relative to TBP
Experimental: (A) The present inventors monitored EP2 and EP4 mRNA expression in DCs exposed to TNFα, PGE2 or a combination of both stimuli. TBP was used as a reference for our qPCR studies as its expression levels matched that of the EP-Rs. White bars represent EP2 levels; black bars indicated EP4 expression. […] All were used at a concentration of 50 μM.
Briefly, RNA was extracted by Tri-reagent (Sigma) and cDNA was synthesized from 1-2 μg RNA using oligo dT (Roche) and Superscript reverse transcriptase (Invitrogen) according to manufacturers' instructions. […] Quantitative RT-PCR was performed using the SYBR® Green JumpStart™ Taq ReadyMix™ (Sigma) according to manufacturer's instructions. The reactions were run on a PTC200 equipped with a Chromo4™ detector (MJ Research, Mass., USA). […] All the measures were performed in duplicates and validated when the difference in Ct between the 2 measures was less than 0.3. […] The ratio gene of interest/housekeeping genes was calculated according to the formula: ratio=2^−dCt (dCT=mean Ct gene−mean Ct housekeeping). GAPDH and TBP were used to normalize for IDO and EP-receptor mRNA expression, respectively.

[5] = biological target: human prostanoid receptors; conditions: four receptors (EP1-4) binding PGE2 with high affinity; cited from earlier work

Compound: Cn1cc(C[C@@H](N)C(=O)O)c2ccccc21 [1-MT, 1-Methyl-D-tryptophan]
- protective tumor immunity [1]: recovered the ability to establish protective immunity

Compound: O=S(=O)(NCCNC/C=C/c1ccc(Br)cc1)c1cccc2cnccc12 [H-89]
- effect on IDO mRNA levels induced by PGE2 or forskolin plus TNFα [2]: block IDO expression

Compound: CCCCC[C@H](O)/C=C/[C@H]1[C@H](O)CC(=O)[C@@H]1C/C=C\CCCC(=O)O [PGE2, prostaglandin E2]
- increase in transcription of IDO ([2]; PGE2 treated DCs vs iDCs): 50-200 fold
- IDO activity (kynurenine, colorimetric), stimulus alone ([3]; DCs treated with the stimulus alone): lacked measurable IDO activity
- EP2 mRNA expression [4]: down-regulation of EP2
- Kd [5]: low nM range

Compound: Nc1ncnc2c1ncn2C1CCCO1 (centres unmarked) [SQ22536]
- effect on IDO mRNA levels induced by PGE2 or forskolin plus TNFα [2]: block IDO expression
- effect on IDO activity of PGE2/forskolin +/- TNFα matured DC ([3]; inhibitor added during 48 hrs maturation): blocks IDO expression/activity
- optimal inhibitor concentration against forskolin-induced IDO ([3]; titrated): 1 mM

Compound: CCCC1([C@H](O)C/C=C/[C@H]2[C@H](O)CC(=O)[C@@H]2CCCCCCC(=O)OC)CCC1 [butaprost, Butaprost]
- IDO activity in the presence of TNFα (PGE2 replaced) ([3]; iDCs treated in combination with TNFα, 48 hrs): resulted in the induction of IDO activity

Compound: TNFα
- IDO mRNA expression (in words) ([2]; iDCs exposed to the stimulus): did not upregulate IDO expression
